Experimental data taken from US20180110762A1, “Compositions Methods for Treating Chronic Kidney Disease” (Merck Sharp & Dohme Corp, priority 2015, published 2018).

What was measured:
[1] = molecular target: T1, Human recombinant integrin αvβ3 (Homo sapiens, UniProt P05106+P06756); test: Solid phase receptor assay, αvβ3 (vitronectin); assay type: binding
T1 construct: purchased R&D Systems
Description: The assay was performed according to the method described in International Patent Publication WO 2014/015054 A1 “Beta Amino Acid Derivatives As Integrin Antagonists.” Briefly, 96-well plates were coated overnight with purified fibronectin or vitronectin (R&D Systems) in TBS+ buffer (25 mM Tris 7.4, 137 mM NaCl, 2.7 mM KCl, 1 mM CaCl2, 1 mM MgCl2, 1 mM MnCl2). Compound A was added at different concentrations to recombinant human integrin proteins (R&D Systems) reconstituted in TBS+/0.1% bovine serum albumin, and 50 μL of this mixture were added to the empty wells of the coated plate and incubated for 1-2 hours. After 3 washes, 50 μL of biotinylated antibody (R&D Systems) in TBS+/0.1% bovine serum albumin were added. The procedure continued with three more washes, addition of 50 μL of streptavidin-conjugated horseradish peroxidase (R&D Systems), and incubation for 20 minutes. After 3 more washes, 50 μL of tetramethylbenzidine (TMB) substrate (SIGMA) were added and plates were read after 20 min by colorimetric detection at 650 nm wavelength in an EnVision Multilabel Plate Reader (Perkin Elmer). The concentrations of fibronectin used were: 2 μg/mL for the α5β1 assay and 5 μg/mL for the αvβ1 assay. The concentrations of vitronectin used were: 1 μg/mL for the αvβ3 assay and 0.25 μg/mL for the αvβ5 assay. […]

[2] = test system: male obese ZSF1 rats (diabetic nephropathy model); test: ZSF1 rat 28-week in-feed study: urinary protein (UPCR, 24 h excretion); assay type: in vivo; conditions: for 24 h Urinary Protein Excretion / UPCR (urinary protein/creatinine ratio): obese ZSF1 rats
Description: (§1) The effects of Compound A (“A”) on renal function, plasma triglycerides, plasma cholesterol, kidney collagen I, kidney collagen III, renal histology, glomerular filtration rate, fibrosis score, and mRNA gene expression (profibrotic genes and integrin β3) were evaluated in male obese ZSF1 rats (a hybrid F1 of Zucker diabetic fatty rat and spontaneously hypertensive heart failure rat; a diabetic nephropathy model) when administered as in-feed for 28 weeks. Sixty obese male ZSF1 rats were randomized to five groups: Obese control (n=12), Compound A 60 mpk (n=12), Compound A 200 mpk (n=12), Compound A 400 mpk (n=12), Enalapril 10 mpk (n=12); Eight lean male ZSF1 rats were used for normal control. Renal functional changes were monitored by blood and urine analysis following in-feed dosing for 28 weeks. Compound exposure was also monitored during the study.

[3] = test system: male obese ZSF1 rats (diabetic nephropathy model); test: ZSF1 rat study: GFR measurement by FITC-sinistrin clearance; assay type: in vivo
Description: as §1
For the measurement of GFR, a miniaturized device (NIC-Kidney, Mannheim Pharma & Diagnostics, Mannheim, Germany) was used. In brief, the device (batteries, diodes, and microprocessor) containing an optical component was affixed on a depilated region of the back using a double-sided sticky patch (Lohmann GmbH KG, 56567, Neuwied, Germany) under isofluorane anesthesia (3% isoflurane mixed with oxygen). After a resting baseline period of 1-1.5 minutes, a bolus of FITC-sinistrin (5 mg/100 g body weight, dissolved in 0.5 mL sterile isotonic saline) was injected through the tail vein. The rat was then placed in a clean cage for recovery from anesthesia to responsible ambulation. […] The excretion kinetics of FITC-sinistrin was determined using a sampling rate of 60 measurements per minute with an excitation time of 10 milliseconds per measurement for 120 minutes after the injection. One compartment model was used for FITC-sinistrin clearance. After completion of GFR measurement, the device was gently removed from the skin and the rat returned to its home cage.

[4] = ZSF-1 rats vs untreated obese ZSF-1 rats (summary)
[5] = obese ZSF1 rats, 200 mpk in-feed, week 28
[6] = obese ZSF1 rats, 400 mpk in-feed, week 28

T1 sequence (P06756 31-992 limits assumed): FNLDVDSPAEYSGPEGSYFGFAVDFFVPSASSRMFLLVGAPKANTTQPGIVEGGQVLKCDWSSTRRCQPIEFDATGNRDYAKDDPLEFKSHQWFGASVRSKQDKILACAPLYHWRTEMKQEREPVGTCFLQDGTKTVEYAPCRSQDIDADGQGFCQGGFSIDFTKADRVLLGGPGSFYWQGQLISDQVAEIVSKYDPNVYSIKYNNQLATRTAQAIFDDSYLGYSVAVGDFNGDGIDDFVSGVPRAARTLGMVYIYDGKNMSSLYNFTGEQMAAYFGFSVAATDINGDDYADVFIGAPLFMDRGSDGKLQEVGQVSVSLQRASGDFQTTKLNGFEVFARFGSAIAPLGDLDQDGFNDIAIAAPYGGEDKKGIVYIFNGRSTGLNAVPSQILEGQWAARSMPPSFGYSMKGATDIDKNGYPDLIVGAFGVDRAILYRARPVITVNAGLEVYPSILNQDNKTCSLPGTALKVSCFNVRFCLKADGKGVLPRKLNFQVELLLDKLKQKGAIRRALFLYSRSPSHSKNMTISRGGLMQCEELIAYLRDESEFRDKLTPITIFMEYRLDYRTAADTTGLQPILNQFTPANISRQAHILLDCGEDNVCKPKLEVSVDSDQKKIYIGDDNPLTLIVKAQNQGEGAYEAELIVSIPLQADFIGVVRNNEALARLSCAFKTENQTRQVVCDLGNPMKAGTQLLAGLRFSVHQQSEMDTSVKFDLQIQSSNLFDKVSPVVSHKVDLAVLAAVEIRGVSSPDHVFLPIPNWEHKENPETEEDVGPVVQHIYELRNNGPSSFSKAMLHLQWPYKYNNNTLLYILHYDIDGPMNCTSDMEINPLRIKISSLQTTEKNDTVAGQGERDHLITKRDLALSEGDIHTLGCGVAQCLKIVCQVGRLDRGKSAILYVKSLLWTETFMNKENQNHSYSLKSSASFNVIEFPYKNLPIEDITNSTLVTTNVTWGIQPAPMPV
T1 sequence (P05106 27-718 limits assumed): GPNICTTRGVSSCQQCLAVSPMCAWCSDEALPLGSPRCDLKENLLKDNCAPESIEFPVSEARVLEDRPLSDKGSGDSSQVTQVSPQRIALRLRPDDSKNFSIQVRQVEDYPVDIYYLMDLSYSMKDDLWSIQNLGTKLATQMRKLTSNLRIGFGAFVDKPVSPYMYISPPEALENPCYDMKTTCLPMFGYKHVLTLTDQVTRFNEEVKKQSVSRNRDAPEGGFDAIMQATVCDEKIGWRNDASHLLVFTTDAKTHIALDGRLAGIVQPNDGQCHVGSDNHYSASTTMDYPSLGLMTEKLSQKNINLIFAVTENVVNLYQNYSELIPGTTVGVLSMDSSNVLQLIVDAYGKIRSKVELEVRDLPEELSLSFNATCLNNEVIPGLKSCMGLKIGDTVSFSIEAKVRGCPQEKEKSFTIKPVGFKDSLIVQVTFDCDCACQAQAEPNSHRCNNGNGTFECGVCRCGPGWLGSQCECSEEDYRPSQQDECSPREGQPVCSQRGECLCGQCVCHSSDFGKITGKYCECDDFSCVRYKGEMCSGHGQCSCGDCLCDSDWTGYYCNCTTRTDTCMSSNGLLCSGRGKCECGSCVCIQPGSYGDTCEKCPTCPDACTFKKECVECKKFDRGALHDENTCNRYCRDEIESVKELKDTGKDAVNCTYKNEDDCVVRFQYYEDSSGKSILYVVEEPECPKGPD

## COc1ccc([C@H](CC(=O)O)N2CCN(CCCc3ccc4c(n3)NCCC4)C2=O)cn1 [Compound A, 3-{2-Oxo-3-[3-(5,6,7,8-tetrahydro-[1,8]naphthyridin-2-yl)-propyl]imidazolidin-1-yl}-3 (S)-(6-methoxy-pyridin-3-yl)-propionic acid]
[1]; αvβ3, first of two experiments
  IC50: 5.2 nM
[1]; αvβ3, second of two experiments
  IC50: 0.33 nM
[2]; 400 mpk, 16-, 21-, 24- and 28-week of treatment
  effect on urinary protein/creatinine ratio (UPCR): significantly decreased
[2]; 400 mpk, 16-, 24- and 28-week of treatment
  effect on 24 h urinary protein excretion: significantly decreased
[2]; [4]
  renal protection: proteinuria and albuminuria: ameliorating proteinuria and albuminuria
[2]; 60 mpk in-feed, week 1
  24 h Urinary Protein Excretion: 137.2 ± 12.7 mg/24 h
  UPCR (urinary protein/creatinine ratio): 12.3 ± 1.0 mg/mg
[2]; 60 mpk in-feed, week 2
  24 h Urinary Protein Excretion: 139.6 ± 11.8 mg/24 h
  UPCR (urinary protein/creatinine ratio): 11.9 ± 1.0 mg/mg
[2]; 60 mpk in-feed, week 4
  24 h Urinary Protein Excretion: 158.4 ± 13.7 mg/24 h
  UPCR (urinary protein/creatinine ratio): 13.4 ± 1.1 mg/mg
[2]; 60 mpk in-feed, week 6
  24 h Urinary Protein Excretion: 197.9 ± 15.7 mg/24 h
  UPCR (urinary protein/creatinine ratio): 16.6 ± 1.2 mg/mg
[2]; 60 mpk in-feed, week 8
  24 h Urinary Protein Excretion: 265.7 ± 18.3 mg/24 h
  UPCR (urinary protein/creatinine ratio): 20.2 ± 1.4 mg/mg
[2]; 60 mpk in-feed, week 12
  24 h Urinary Protein Excretion: 425.3 ± 21.6 mg/24 h
  UPCR (urinary protein/creatinine ratio): 30.8 ± 1.7 mg/mg
[2]; 60 mpk in-feed, week 16
  24 h Urinary Protein Excretion: 462.2 ± 30.4 mg/24 h
  UPCR (urinary protein/creatinine ratio): 27.3 ± 1.7 mg/mg
[2]; 60 mpk in-feed, week 21
  24 h Urinary Protein Excretion: 486.2 ± 39.2 mg/24 h
  UPCR (urinary protein/creatinine ratio): 27.7 ± 2.0+ mg/mg
[2]; 60 mpk in-feed, week 24
  24 h Urinary Protein Excretion: 582.0 ± 43.9 mg/24 h
  UPCR (urinary protein/creatinine ratio): 34.4 ± 2.3 mg/mg
[2]; 60 mpk in-feed, week 28
  24 h Urinary Protein Excretion: 654.3 ± 48.1 mg/24 h
  UPCR (urinary protein/creatinine ratio): 37.5 ± 2.8 mg/mg
[2]; 60 mpk in-feed, week −2
  24 h Urinary Protein Excretion: 128.8 ± 11.0 mg/24 h
  UPCR (urinary protein/creatinine ratio): 10.9 ± 0.9 mg/mg
[2]; 200 mpk in-feed, week 1
  24 h Urinary Protein Excretion: 117.7 ± 9.4 mg/24 h
  UPCR (urinary protein/creatinine ratio): 10.7 ± 0.8 mg/mg
[2]; 200 mpk in-feed, week 2
  24 h Urinary Protein Excretion: 124.9 ± 10.9 mg/24 h
  UPCR (urinary protein/creatinine ratio): 10.9 ± 1.0 mg/mg
[2]; 200 mpk in-feed, week 4
  24 h Urinary Protein Excretion: 140.0 ± 12.4 mg/24 h
  UPCR (urinary protein/creatinine ratio): 12.1 ± 1.1 mg/mg
[2]; 200 mpk in-feed, week 6
  24 h Urinary Protein Excretion: 167.1 ± 15.0 mg/24 h
  UPCR (urinary protein/creatinine ratio): 14.1 ± 1.2 mg/mg
[2]; 200 mpk in-feed, week 8
  24 h Urinary Protein Excretion: 233.9 ± 18.7 mg/24 h
  UPCR (urinary protein/creatinine ratio): 18.0 ± 1.5 mg/mg
[2]; 200 mpk in-feed, week 12
  24 h Urinary Protein Excretion: 400.5 ± 20.5 mg/24 h
  UPCR (urinary protein/creatinine ratio): 28.7 ± 1.6 mg/mg
[2]; 200 mpk in-feed, week 16
  24 h Urinary Protein Excretion: 452.2 ± 27.6 mg/24 h
  UPCR (urinary protein/creatinine ratio): 26.3 ± 1.5 mg/mg
[2]; 200 mpk in-feed, week 21
  24 h Urinary Protein Excretion: 489.0 ± 28.6 mg/24 h
  UPCR (urinary protein/creatinine ratio): 28.1 ± 1.6+ mg/mg
[2]; 200 mpk in-feed, week 24
  24 h Urinary Protein Excretion: 541.6 ± 32.3 mg/24 h
  UPCR (urinary protein/creatinine ratio): 32.0 ± 1.9 mg/mg
[2]; 200 mpk in-feed, week 28
  24 h Urinary Protein Excretion: 646.2 ± 44.6 mg/24 h
  UPCR (urinary protein/creatinine ratio): 36.5 ± 2.3 mg/mg
[2]; 200 mpk in-feed, week −2
  24 h Urinary Protein Excretion: 122.3 ± 9.5 mg/24 h
  UPCR (urinary protein/creatinine ratio): 10.7 ± 0.9 mg/mg
[2]; 400 mpk in-feed, week 1
  24 h Urinary Protein Excretion: 138.5 ± 11.3 mg/24 h
  UPCR (urinary protein/creatinine ratio): 12.3 ± 0.9 mg/mg
[2]; 400 mpk in-feed, week 2
  24 h Urinary Protein Excretion: 148.8 ± 12.3 mg/24 h
  UPCR (urinary protein/creatinine ratio): 12.5 ± 0.9 mg/mg
[2]; 400 mpk in-feed, week 4
  24 h Urinary Protein Excretion: 148.0 ± 8.3 mg/24 h
  UPCR (urinary protein/creatinine ratio): 12.7 ± 0.6 mg/mg
[2]; 400 mpk in-feed, week 6
  24 h Urinary Protein Excretion: 162.6 ± 11.7 mg/24 h
  UPCR (urinary protein/creatinine ratio): 13.8 ± 0.9 mg/mg
[2]; 400 mpk in-feed, week 8
  24 h Urinary Protein Excretion: 224.8 ± 16.3 mg/24 h
  UPCR (urinary protein/creatinine ratio): 17.8 ± 1.2 mg/mg
[2]; 400 mpk in-feed, week 12
  24 h Urinary Protein Excretion: 358.4 ± 19.9 mg/24 h
  UPCR (urinary protein/creatinine ratio): 26.9 ± 1.5 mg/mg
[2]; 400 mpk in-feed, week 16
  24 h Urinary Protein Excretion: 360.5 ± 19.7++ mg/24 h
  UPCR (urinary protein/creatinine ratio): 20.9 ± 1.0++ mg/mg
[2]; 400 mpk in-feed, week 21
  24 h Urinary Protein Excretion: 448.1 ± 19.6 mg/24 h
  UPCR (urinary protein/creatinine ratio): 26.0 ± 1.3++ mg/mg
[2]; 400 mpk in-feed, week 24
  24 h Urinary Protein Excretion: 483.8 ± 27.1++ mg/24 h
  UPCR (urinary protein/creatinine ratio): 28.1 ± 1.7++ mg/mg
[2]; 400 mpk in-feed, week 28
  24 h Urinary Protein Excretion: 554.9 ± 28.3++ mg/24 h
  UPCR (urinary protein/creatinine ratio): 31.2 ± 1.7++ mg/mg
[2]; 400 mpk in-feed, week −2
  24 h Urinary Protein Excretion: 127.0 ± 11.0 mg/24 h
  UPCR (urinary protein/creatinine ratio): 10.8 ± 0.9 mg/mg
[3]; 60 mpk, 200 mpk and 400 mpk at weeks 28-30
  effect on glomerular filtration rate: no significant effect
[3]; [4]
  Glomerular Filtration Rate: non-statistically significant improvements in glomerular filtration rate
[3]; obese ZSF1 rats, 60 mpk in-feed, week 28
  Glomerular Filtration Rate: 609.8 ± 42.1 uLs/Min/100 gm BW
[3]; [5]
  FITC-sinistrin clearance, % change of improvement compared to Obese Vehicle group: 8.8%
  Glomerular Filtration Rate: 663.2 ± 50.6 uLs/Min/100 gm BW
[3]; [6]
  FITC-sinistrin clearance, % change of improvement compared to Obese Vehicle group: 14.4%
  Glomerular Filtration Rate: 697.5 ± 37.9 uLs/Min/100 gm BW
